Data reported in PubChem BioAssay AID242 (DTP/NCI, 2004).
Several values for one entry are separate records, joined by “and”; a condition that tells them apart may be missing. Equal entries are not always repeated. Inconclusive results and toxic doses are left out. How the source made its calls: active means survival T/C of 150% or more; inactive means T/C below 125% in these data.

Test system: BDF1 mice, Lymphoma 8 ip, survival T/C
Experiment: NCI In Vivo Anticancer Drug Screen. Data for tumor model Lymphoma 8 (intraperitoneal) in B6D2F1 (BDF1) mice
Conditions: higher = longer survival
Description: The antitumor activity of compounds was measured in mice bearing transplantable tumors. Survival or tumor size were measured and the results are expressed as the measurement made in the treated group (T) divided by the measurement made in the vehicle treated control group (C). The tumor model used in this assay is Lymphoma 8 (intraperitoneal) in B6D2F1 (BDF1) mice

[1] = endpoint: survival time, mean or median, dose: 25.0 mg/kg/injection, schedule: Q01DX008 (ip), vehicle: saline
[2] = endpoint: survival time, mean or median, dose: 100.0 mg/kg/injection, schedule: Q01DX008 (ip), vehicle: saline
[3] = endpoint: survival time, mean or median, dose: 15.6 mg/kg/injection, schedule: Q01DX010 (ip), vehicle: saline
[4] = endpoint: survival time, mean or median, dose: 31.3 mg/kg/injection, schedule: Q01DX010 (ip), vehicle: saline
[5] = endpoint: survival time, mean or median, dose: 12.5 mg/kg/injection, schedule: Q01DX010 (ip), vehicle: saline
[6] = endpoint: survival time, mean or median, dose: 25.0 mg/kg/injection, schedule: Q01DX010 (ip), vehicle: saline
[7] = endpoint: survival time, mean or median, dose: 50.0 mg/kg/injection, schedule: Q01DX010 (ip), vehicle: saline
[8] = endpoint: survival time, mean or median, dose: 100.0 mg/kg/injection, schedule: Q01DX010 (ip), vehicle: saline
[9] = endpoint: survival time, mean or median, dose: 3.13 mg/kg/injection, schedule: Q01DX010 (ip), vehicle: saline
[10] = endpoint: survival time, mean or median, dose: 6.25 mg/kg/injection, schedule: Q01DX010 (ip), vehicle: saline
[11] = endpoint: survival time, mean or median, dose: 8.0 mg/kg/injection, schedule: Q01DX010 (ip), vehicle: saline
[12] = endpoint: survival time, mean or median, dose: 62.5 mg/kg/injection, schedule: Q01DX010 (ip), vehicle: saline

Measured: T/C

CN(N=O)C(=O)N[C@@H](C=O)[C@@H](O)[C@H](O)[C@H](O)CO
inactive: endpoint: survival time, mean or median, dose: 12.5 mg/kg/injection, schedule: Q01DX008 (im), vehicle: saline 124 % of control | endpoint: survival time, mean or median, dose: 12.5 mg/kg/injection, schedule: Q01DX008 (ip), vehicle: saline 116 % of control | endpoint: survival time, mean or median, dose: 12.5 mg/kg/injection, schedule: Q01DX008 (iv), vehicle: saline 97 % of control | endpoint: survival time, mean or median, dose: 12.5 mg/kg/injection, schedule: Q01DX008 (sc), vehicle: saline 116 % of control | [1] 115 % of control | endpoint: survival time, mean or median, dose: 25.0 mg/kg/injection, schedule: Q01DX008 (iv), vehicle: saline 106 % of control | endpoint: survival time, mean or median, dose: 25.0 mg/kg/injection, schedule: Q01DX008 (sc), vehicle: saline 124 % of control | endpoint: survival time, mean or median, dose: 50.0 mg/kg/injection, schedule: Q01DX008 (iv), vehicle: saline 107 % of control | endpoint: survival time, mean or median, dose: 100.0 mg/kg/injection, schedule: Q01DX008 (im), vehicle: saline 86 % of control | [2] 96 % of control | endpoint: survival time, mean or median, dose: 100.0 mg/kg/injection, schedule: Q01DX008 (iv), vehicle: saline 106 % of control | endpoint: survival time, mean or median, dose: 100.0 mg/kg/injection, schedule: Q01DX Z (oral), vehicle: saline 100 % of control | endpoint: survival time, mean or median, dose: 200.0 mg/kg/injection, schedule: Q01DX Z (oral), vehicle: saline 100 % of control | endpoint: survival time, mean or median, dose: 400.0 mg/kg/injection, schedule: Q01DX Z (oral), vehicle: saline 117 % of control | endpoint: survival time, mean or median, dose: 800.0 mg/kg/injection, schedule: Q01DX Z (oral), vehicle: saline 97 % of control

O=c1cnn(C2OC(CO)C(O)C2O)c(=O)[nH]1 (stereo not given)
inactive: endpoint: survival time, mean or median, dose: 200.0 mg/kg/injection, schedule: Q01DX008 (ip), vehicle: saline 115 % of control | endpoint: survival time, mean or median, dose: 800.0 mg/kg/injection, schedule: Q01DX008 (ip), vehicle: saline 96 % of control

CCOC=Nc1c(N)ncnc1Cl
inactive: endpoint: survival time, mean or median, dose: 62.5 mg/kg/injection, schedule: Q01DX015 (ip), vehicle: olive oil, sesame oil, peanut oil 107 % of control | endpoint: survival time, mean or median, dose: 125.0 mg/kg/injection, schedule: Q01DX015 (ip), vehicle: olive oil, sesame oil, peanut oil 93 % of control | endpoint: survival time, mean or median, dose: 250.0 mg/kg/injection, schedule: Q01DX015 (ip), vehicle: olive oil, sesame oil, peanut oil 101 % of control | endpoint: survival time, mean or median, dose: 500.0 mg/kg/injection, schedule: Q01DX015 (ip), vehicle: olive oil, sesame oil, peanut oil 101 % of control

CCN(CCNc1ccc(C)c2sc3cc(Cl)ccc3c(=O)c12)CC(C)O (stereo not given)
inactive: endpoint: survival time, mean or median, dose: 7.8 mg/kg/injection, schedule: Q01DX010 (ip), vehicle: saline 100 % of control | [3] 100 % of control | [4] 96 % of control

CCN(CC)c1ccc2cc3ccc(=[N+](CC)CC)cc-3oc2c1
inactive: endpoint: survival time, mean or median, dose: 1.0 mg/kg/injection, schedule: Q01DX010 (ip), vehicle: saline 96 % of control

CN(N=O)C(=O)NC(C=O)C(O)C(O)C(O)CO (stereo not given)
inactive: [5] 96 % of control | [1] 115 % of control | [6] 100 % of control | endpoint: survival time, mean or median, dose: 50.0 mg/kg/injection, schedule: Q01DX008 (ip), vehicle: saline 111 % of control | [7] 121 % of control | [2] 115 % of control | [8] 121 % of control

CCCNc1ncnc2[nH]ncc12
inactive: [9] 104 % of control (2×) and 105 % of control | [10] 105 % of control and 106 % of control | [5] 90 % of control and 100 % of control and 114 % of control

NC(=O)c1[nH]nc(C2OC(CO)C(O)C2O)c1O (stereo not given)
inactive: endpoint: median survival time, dose: 1.56 mg/kg/injection, schedule: Q04DX003 (ip), vehicle: saline 100 % of control | endpoint: median survival time, dose: 2.59 mg/kg/injection, schedule: Q04DX003 (ip), vehicle: saline 103 % of control | endpoint: median survival time, dose: 4.32 mg/kg/injection, schedule: Q04DX003 (ip), vehicle: saline 103 % of control | endpoint: median survival time, dose: 7.2 mg/kg/injection, schedule: Q04DX003 (ip), vehicle: saline 104 % of control | endpoint: median survival time, dose: 12.0 mg/kg/injection, schedule: Q04DX003 (ip), vehicle: saline 122 % of control | endpoint: median survival time, dose: 20.0 mg/kg/injection, schedule: Q04DX003 (ip), vehicle: saline 111 % of control

Nc1nc(SCc2ccccc2)c2[nH]cnc2n1
inactive: [11] 91 % of control and 107 % of control | endpoint: survival time, mean or median, dose: 16.0 mg/kg/injection, schedule: Q01DX010 (ip), vehicle: saline 100 % of control and 103 % of control | endpoint: survival time, mean or median, dose: 32.0 mg/kg/injection, schedule: Q01DX010 (ip), vehicle: saline 100 % of control and 103 % of control | endpoint: survival time, mean or median, dose: 64.0 mg/kg/injection, schedule: Q01DX010 (ip), vehicle: saline 91 % of control

CCn1cnc2c(=S)nc[nH]c21
inactive: [3] 91 % of control and 100 % of control | [4] 100 % of control | [12] 92 % of control and 100 % of control

O=C(O)CCCc1ccc(N(CCCl)CCCl)cc1
inactive: [9] 100 % of control and 104 % of control | [10] 104 % of control and 116 % of control | [5] 104 % of control

Nc1nc2n[nH]nc2c(=O)[nH]1
inactive: endpoint: survival time, mean or median, dose: 25.0 mg/kg/injection, schedule: Q01DX010 (ip), vehicle: alkali diluted with saline 108 % of control | endpoint: survival time, mean or median, dose: 50.0 mg/kg/injection, schedule: Q01DX010 (ip), vehicle: alkali diluted with saline 104 % of control and 112 % of control | endpoint: survival time, mean or median, dose: 100.0 mg/kg/injection, schedule: Q01DX010 (ip), vehicle: alkali diluted with saline 112 % of control and 116 % of control | endpoint: survival time, mean or median, dose: 200.0 mg/kg/injection, schedule: Q01DX010 (ip), vehicle: alkali diluted with saline 116 % of control

CS(=O)(=O)OCCN(CCOS(C)(=O)=O)c1ccc(N=O)cc1
inactive: endpoint: survival time, mean or median, dose: 0.25 mg/kg/injection, schedule: Q01DX010 (ip), vehicle: saline 121 % of control | endpoint: survival time, mean or median, dose: 0.5 mg/kg/injection, schedule: Q01DX010 (ip), vehicle: saline 110 % of control | endpoint: survival time, mean or median, dose: 63.0 micrograms/kg/injection, schedule: Q01DX010 (ip), vehicle: saline 113 % of control | endpoint: survival time, mean or median, dose: 125.0 micrograms/kg/injection, schedule: Q01DX010 (ip), vehicle: saline 120 % of control | endpoint: survival time, mean or median, dose: 500.0 micrograms/kg/injection, schedule: Q01DX010 (ip), vehicle: saline 123 % of control

O=C(O)CC(NC(=O)CP(=O)(O)O)C(=O)O (stereo not given)
inactive: endpoint: median survival time, dose: 62.2 mg/kg/injection, schedule: Q04DX003 (ip), vehicle: saline 101 % of control | endpoint: median survival time, dose: 104.0 mg/kg/injection, schedule: Q04DX003 (ip), vehicle: saline 114 % of control | endpoint: median survival time, dose: 173.0 mg/kg/injection, schedule: Q04DX003 (ip), vehicle: saline 103 % of control | endpoint: median survival time, dose: 288.0 mg/kg/injection, schedule: Q04DX003 (ip), vehicle: saline 108 % of control | endpoint: median survival time, dose: 480.0 mg/kg/injection, schedule: Q04DX003 (ip), vehicle: saline 111 % of control

Cc1cc2nc3c(=O)[nH]c(=O)nc-3n(CC(O)C(O)C(O)C(O)CO)c2cc1C (stereo not given)
inactive: endpoint: survival time, mean or median, dose: 50.0 mg/kg/injection, schedule: Q01DX015 (ip), vehicle: carboxymethylcellulose (CMC) 90 % of control | endpoint: survival time, mean or median, dose: 200.0 mg/kg/injection, schedule: Q01DX015 (ip), vehicle: carboxymethylcellulose (CMC) 87 % of control

OCC1OC(n2cnc3c(Cl)ncnc32)C(O)C1O (stereo not given)
inactive: [12] 90 % of control and 105 % of control | endpoint: survival time, mean or median, dose: 125.0 mg/kg/injection, schedule: Q01DX010 (ip), vehicle: saline 95 % of control and 100 % of control and 105 % of control | endpoint: survival time, mean or median, dose: 250.0 mg/kg/injection, schedule: Q01DX010 (ip), vehicle: saline 90 % of control and 95 % of control and 105 % of control | endpoint: survival time, mean or median, dose: 500.0 mg/kg/injection, schedule: Q01DX010 (ip), vehicle: saline 97 % of control and 104 % of control and 115 % of control

CSc1ncnc2nc[nH]c12
inactive: [6] 103 % of control | [7] 103 % of control | [8] 100 % of control

C[n+]1c2ccccc2nc2c(N)cc(N)cc21
inactive: [11] 121 % of control | endpoint: survival time, mean or median, dose: 12.0 mg/kg/injection, schedule: Q01DX010 (ip), vehicle: saline 117 % of control | endpoint: survival time, mean or median, dose: 18.0 mg/kg/injection, schedule: Q01DX010 (ip), vehicle: saline 107 % of control

N=C(N)SCc1c2ccccc2c(CSC(=N)N)c2ccccc12
inactive: endpoint: survival time, mean or median, dose: 2.5 mg/kg/injection, schedule: Q01DX010 (ip), vehicle: saline 106 % of control and 121 % of control | endpoint: survival time, mean or median, dose: 5.0 mg/kg/injection, schedule: Q01DX010 (ip), vehicle: saline 113 % of control | endpoint: survival time, mean or median, dose: 20.0 mg/kg/injection, schedule: Q01DX010 (ip), vehicle: saline 113 % of control and 114 % of control
